How the values were obtained:
Assay type in all cases: in vivo
[1] = tested on: Abutilon theophrasti (ABUTH); experiment: C. Herbicidal pre-emergence efficacy, ABUTH; conditions: scored after about 3 weeks
Excerpt: (§1) Seeds of monocotyledonous and dicotyledonous weed plants and crop plants were placed in plastic or organic planting pots and covered with soil. The compounds of the invention, formulated in the form of wettable powders (WP) or as emulsion concentrates (EC), were then applied to the surface of the covering soil as aqueous suspension or emulsion with addition of 0.5% additive at a water application rate equivalent to 600 l/ha (converted). After the treatment, the pots were placed in a greenhouse and kept under good growth conditions for the test plants. After about 3 weeks, the efficacy of the preparations was scored visually in comparison with untreated controls as percentages. For example, • 100% efficacy=plants have died, • 0% efficacy=like untreated control plants.
(§2) Tables C1a to C14b below show the effects of selected compounds of the general formula (I) according to table 1 on various harmful plants at an application rate corresponding to 320 g/ha or less, which were obtained by the experimental procedure mentioned above.

[2] = tested on: Alopecurus myosuroides (ALOMY); experiment: C. Herbicidal pre-emergence efficacy, ALOMY; conditions: 320 g/ha, scored after about 3 weeks
Excerpt: as §1, §2

[3] = tested on: Amaranthus retroflexus (AMARE); experiment: C. Herbicidal pre-emergence efficacy, AMARE; conditions: scored after about 3 weeks
Excerpt: as §1, §2

[4] = tested on: Digitaria sanguinalis (DIGSA); experiment: C. Herbicidal pre-emergence efficacy, DIGSA; conditions: 320 g/ha, scored after about 3 weeks
Excerpt: as §1, §2

[5] = tested on: Echinochloa crus-galli (ECHCG); experiment: C. Herbicidal pre-emergence efficacy, ECHCG; conditions: 320 g/ha, scored after about 3 weeks
Excerpt: as §1, §2

Lolium rigidum (LOLRI) = experiment: C. Herbicidal pre-emergence efficacy, LOLRI; conditions: 320 g/ha, scored after about 3 weeks
Excerpt: as §1, §2

[6] = tested on: Polygonum convolvulus (POLCO); experiment: C. Herbicidal pre-emergence efficacy, POLCO; conditions: 320 g/ha, scored after about 3 weeks
Excerpt: as §1, §2

Setaria viridis (SETVI) [7] = experiment: C. Herbicidal pre-emergence efficacy, SETVI; conditions: 320 g/ha, scored after about 3 weeks
Excerpt: as §1, §2

Veronica persica (VERPE) [8] = experiment: C. Herbicidal pre-emergence efficacy, VERPE; conditions: 320 g/ha, scored after about 3 weeks
Excerpt: as §1, §2

Viola tricolor (VIOTR) [9] = experiment: C. Herbicidal pre-emergence efficacy, VIOTR
Excerpt: as §1, §2

Kochia scoparia (KCHSC) [10] = experiment: C. Herbicidal pre-emergence efficacy, KCHSC; conditions: application rate 320 g/ha
Excerpt: as §1, §2

Zea mays (ZEAMX) [11] = experiment: D. Pre-emergence effect on useful plants, ZEAMX; conditions: useful plant, application rate 80 g/ha
Excerpt: as §1
(§3) Tables D1a to D5b below show the effects of selected compounds of the general formula (I) according to table 1 on various useful plants at an application rate corresponding to 320 g/ha or less, which were obtained by the experimental procedure mentioned above.

[12] = tested on: Triticum aestivum (TRZAS); experiment: D. Pre-emergence effect on useful plants, TRZAS; conditions: useful plant, application rate 80 g/ha
Excerpt: as §1, §3

Glycine max (GLXMA) = experiment: D. Pre-emergence effect on useful plants, GLXMA; conditions: useful plant, application rate 80 g/ha
Excerpt: as §1, §3

[13] = tested on: Abutilon theophrasti (ABUTH); experiment: E. Herbicidal post-emergence efficacy, ABUTH; conditions: application rate 320 g/ha
Experimental: (§4) Seeds of monocotyledonous and dicotyledonous weeds and crop plants were placed in sandy loam in plastic or organic planting pots, covered with soil and cultivated in a greenhouse under controlled growth conditions. 2 to 3 weeks after sowing, the test plants were treated at the one-leaf stage. The compounds of the invention, formulated in the form of wettable powders (WP) or as emulsion concentrates (EC), were then sprayed onto the green parts of the plants as aqueous suspension or emulsion with addition of 0.5% additive at a water application rate of 600 l/ha (converted). After the test plants had been kept in the greenhouse under optimum growth conditions for about 3 weeks, the activity of the preparations was rated visually in comparison to untreated controls.
(§5) For example, • 100% efficacy=plants have died, • 0% action=like untreated control plants.
(§6) Tables E1a to E12b below show the effects of selected compounds of the general formula (I) according to table 1 on various harmful plants at an application rate corresponding to 320 g/ha or less, which were obtained by the experimental procedure mentioned above.

[14] = tested on: Amaranthus retroflexus (AMARE); experiment: E. Herbicidal post-emergence efficacy, AMARE
Experimental: as §4, §5, §6

[15] = tested on: Echinochloa crus-galli (ECHCG); experiment: E. Herbicidal post-emergence efficacy, ECHCG; conditions: application rate 320 g/ha
Experimental: as §4, §5, §6

[16] = tested on: Pharbitis purpurea (PHBPU); experiment: E. Herbicidal post-emergence efficacy, PHBPU
Experimental: as §4, §5, §6

[17] = tested on: Polygonum convolvulus (POLCO); experiment: E. Herbicidal post-emergence efficacy, POLCO; conditions: application rate 320 g/ha
Experimental: as §4, §5, §6

Setaria viridis (SETVI) [18] = experiment: E. Herbicidal post-emergence efficacy, SETVI; conditions: application rate 320 g/ha
Experimental: as §4, §5, §6

Veronica persica (VERPE) [19] = experiment: E. Herbicidal post-emergence efficacy, VERPE
Experimental: as §4, §5, §6

Viola tricolor (VIOTR) [20] = experiment: E. Herbicidal post-emergence efficacy, VIOTR
Experimental: as §4, §5, §6

Kochia scoparia (KCHSC) [21] = experiment: E. Herbicidal post-emergence efficacy, KCHSC
Experimental: as §4, §5, §6

Zea mays (ZEAMX) [22] = experiment: F. Post-emergence effect on useful plants, ZEAMX; conditions: useful plant, application rate 80 g/ha
Experimental: as §4, §5
(§7) Tables F1a to F4 below show the effects of selected compounds of the general formula (I) according to table 1 on various useful plants at an application rate corresponding to 320 g/ha or less, which were obtained by the experimental procedure mentioned above.

[23] = tested on: Triticum aestivum (TRZAS); experiment: F. Post-emergence effect on useful plants, TRZAS; conditions: useful plant
Experimental: as §4, §5, §7

Cc1cccc(Oc2ncc(Cl)cn2)c1OS(=O)(=O)CCC(F)=C(F)F [Example I-71]
0%: Pre-emergence efficacy against ZEAMX in % (Zea mays (ZEAMX) [11]) | Pre-emergence efficacy against TRZAS in % [12] | Post-emergence efficacy against ZEAMX in % (Zea mays (ZEAMX) [22]) | Post-emergence efficacy against TRZAS in % ([23]; application rate 80 g/ha) | Post-emergence efficacy against TRZAS in % ([23]; application rate 320 g/ha)
100%: Pre-emergence efficacy against ABUTH ([1]; 320 g/ha) | Pre-emergence efficacy against AMARE ([3]; 80 g/ha) | Pre-emergence efficacy against AMARE ([3]; 320 g/ha) | Pre-emergence efficacy against DIGSA [4] | Pre-emergence efficacy against ECHCG [5] | Pre-emergence efficacy against POLCO [6] | Pre-emergence efficacy against SETVI (Setaria viridis (SETVI) [7]) | Pre-emergence efficacy against VIOTR in % (Viola tricolor (VIOTR) [9]; application rate 80 g/ha) | Pre-emergence efficacy against VIOTR in % (Viola tricolor (VIOTR) [9]; application rate 320 g/ha) | Pre-emergence efficacy against KCHSC in % (Kochia scoparia (KCHSC) [10]) | Post-emergence efficacy against ABUTH in % [13] | Post-emergence efficacy against AMARE in % ([14]; application rate 320 g/ha) | Post-emergence efficacy against POLCO in % [17] | Post-emergence efficacy against SETVI in % (Setaria viridis (SETVI) [18]) | Post-emergence efficacy against VERPE in % (Veronica persica (VERPE) [19]; application rate 320 g/ha) | Post-emergence efficacy against VIOTR in % (Viola tricolor (VIOTR) [20]; application rate 320 g/ha) | Post-emergence efficacy against KCHSC in % (Kochia scoparia (KCHSC) [21]; application rate 80 g/ha) | Post-emergence efficacy against KCHSC in % (Kochia scoparia (KCHSC) [21]; application rate 320 g/ha)
90%: Pre-emergence efficacy against VERPE (Veronica persica (VERPE) [8]) | Post-emergence efficacy against AMARE in % ([14]; application rate 80 g/ha) | Post-emergence efficacy against ECHCG in % [15] | Post-emergence efficacy against PHBPU in % ([16]; application rate 320 g/ha) | Post-emergence efficacy against VIOTR in % (Viola tricolor (VIOTR) [20]; application rate 80 g/ha)
10%: Pre-emergence efficacy against GLXMA in % (Glycine max (GLXMA))
80%: Pre-emergence efficacy against ABUTH ([1]; 80 g/ha) | Pre-emergence efficacy against ALOMY [2] | Pre-emergence efficacy against LOLRI (Lolium rigidum (LOLRI)) | Post-emergence efficacy against PHBPU in % ([16]; application rate 80 g/ha) | Post-emergence efficacy against VERPE in % (Veronica persica (VERPE) [19]; application rate 80 g/ha)

From patent publication US20240174618A1, “SUBSTITUTED (2-HETEROARYLOXYPHENYL)SULFONATES, SALTS THEREOF AND THEIR USE AS HERBICIDAL AGENTS” (Bayer Aktiengesellschaft, priority 2021, published 2024)
